Here are results for 13 molecules from ChEMBL document CHEMBL1157442, “Discovery of new binding elements in DPP-4 inhibition and their applications in novel DPP-4 inhibitor design” (Bioorg Med Chem Lett, 2008).

For data set [1], the target named is Dipeptidyl peptidase 8 (Homo sapiens, UniProt Q6V1X1). Put plainly: Inhibition of DPP8.
The nature of data set [2]: Clearance in rat plasma at 1 mg/kg, iv and 2 mg/kg, po. Format: ADME, organism-based.
A short description of data set [3]: Cmax in rat 1 mg/kg, iv and 2 mg/kg, po. Format: ADME, organism-based. Conditions: in vivo.
Data set [4] in a line: Oral bioavailability in rat at 2 mg/kg. Conditions: in vivo. The format is ADME, organism-based.
Data set [5] can be described thus: Half life in rat plasma 1 mg/kg, iv and 2 mg/kg, po. The format is ADME, organism-based.
Data set [6] deals with Dipeptidyl peptidase 4 (Homo sapiens, UniProt P27487). Put plainly: Inhibition of DPP4.
Sequence of Dipeptidyl peptidase 4 (P27487 whole entry): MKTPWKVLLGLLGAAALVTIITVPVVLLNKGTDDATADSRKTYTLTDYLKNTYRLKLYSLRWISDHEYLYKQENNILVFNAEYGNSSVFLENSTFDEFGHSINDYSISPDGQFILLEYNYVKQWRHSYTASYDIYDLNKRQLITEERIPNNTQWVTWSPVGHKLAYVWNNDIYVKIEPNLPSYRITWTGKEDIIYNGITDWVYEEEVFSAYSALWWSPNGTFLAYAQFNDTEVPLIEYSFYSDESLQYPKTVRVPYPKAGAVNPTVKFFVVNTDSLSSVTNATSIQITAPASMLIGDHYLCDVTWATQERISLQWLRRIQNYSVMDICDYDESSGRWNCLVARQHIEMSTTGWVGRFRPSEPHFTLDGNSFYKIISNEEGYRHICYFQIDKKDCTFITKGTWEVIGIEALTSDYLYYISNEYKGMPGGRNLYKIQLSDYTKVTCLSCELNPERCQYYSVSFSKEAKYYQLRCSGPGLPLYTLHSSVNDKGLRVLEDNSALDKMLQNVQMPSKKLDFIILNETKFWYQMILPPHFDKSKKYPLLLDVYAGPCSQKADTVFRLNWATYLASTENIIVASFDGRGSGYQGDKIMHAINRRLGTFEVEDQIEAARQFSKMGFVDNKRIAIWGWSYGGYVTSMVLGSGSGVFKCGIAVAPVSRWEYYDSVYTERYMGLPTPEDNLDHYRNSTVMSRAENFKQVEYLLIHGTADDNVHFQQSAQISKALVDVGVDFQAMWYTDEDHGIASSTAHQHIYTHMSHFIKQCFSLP

Sequence of Dipeptidyl peptidase 8 (Q6V1X1 whole entry): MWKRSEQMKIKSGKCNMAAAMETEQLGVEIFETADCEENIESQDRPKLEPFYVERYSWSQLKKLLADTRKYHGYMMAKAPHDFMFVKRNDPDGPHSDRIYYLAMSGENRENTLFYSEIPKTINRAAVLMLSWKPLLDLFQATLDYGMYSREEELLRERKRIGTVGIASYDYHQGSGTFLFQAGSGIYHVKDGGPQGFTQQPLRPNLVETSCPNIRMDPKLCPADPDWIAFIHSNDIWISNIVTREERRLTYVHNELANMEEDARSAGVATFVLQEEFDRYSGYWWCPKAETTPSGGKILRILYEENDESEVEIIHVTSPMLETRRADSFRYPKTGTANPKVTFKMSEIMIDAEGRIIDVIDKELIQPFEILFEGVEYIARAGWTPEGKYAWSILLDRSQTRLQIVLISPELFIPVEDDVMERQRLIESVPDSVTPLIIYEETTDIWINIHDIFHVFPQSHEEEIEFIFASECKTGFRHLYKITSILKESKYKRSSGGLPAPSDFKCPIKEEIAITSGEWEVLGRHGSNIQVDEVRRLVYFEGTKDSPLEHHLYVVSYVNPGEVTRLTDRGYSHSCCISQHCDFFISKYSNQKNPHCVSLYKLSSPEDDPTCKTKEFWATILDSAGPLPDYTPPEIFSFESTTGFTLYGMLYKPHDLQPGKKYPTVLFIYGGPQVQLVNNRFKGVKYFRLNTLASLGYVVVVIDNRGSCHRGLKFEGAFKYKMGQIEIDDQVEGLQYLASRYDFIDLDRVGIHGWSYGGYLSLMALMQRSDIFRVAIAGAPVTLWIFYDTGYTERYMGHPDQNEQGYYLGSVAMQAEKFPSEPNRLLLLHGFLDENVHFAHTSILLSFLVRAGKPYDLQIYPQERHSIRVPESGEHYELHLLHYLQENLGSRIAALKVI

For the molecule `C[C@H](c1nc(-c2ccc(OC(F)(F)F)cc2)no1)[C@H](N)C(=O)N1CCCC1`, in data set [1], the IC50 is greater than 100 µM.

In data set [2], `NC(=O)c1cccc(-c2ccc([C@H](N)Cc3cc(F)ccc3F)cc2)c1` came in with a clearance of 13 mL/min/kg. This molecule also showed a Cmax in data set [3] of 2100 nM. The bioavailability in data set [4] was found to be 130%. In data set [5], this molecule showed a half-life of 3.8 h. The half-maximal inhibitory concentration (IC50) in data set [1] was greater than 100 µM.

In data set [6], `C[C@@H]1C(=O)NCCCN1C(=O)C[C@H](N)Cc1ccccc1F` displayed an IC50 of 0.04 µM.

In the case of `N[C@H](Cc1cc(F)ccc1F)c1ccc(-c2ccncc2Cl)cc1`, the IC50 in data set [1] was greater than 100 µM; in data set [6] it was 0.107 µM.

Take `C[C@H](c1nc(-c2ccc(Cl)cc2Cl)no1)[C@H](N)C(=O)N1CC[C@H](F)C1`: the IC50 was greater than 100 µM in data set [1] and 0.615 µM in data set [6].

In data set [1], `C[C@H](c1nc(-c2ccc(S(C)(=O)=O)cc2Cl)no1)[C@H](N)C(=O)N1CC[C@H](F)C1` yielded an IC50 greater than 100 µM.

Turning to `N[C@H](Cc1cc(F)ccc1F)c1ccc(Br)cc1`, in data set [1], the IC50 was greater than 100 µM.

As to `Cc1noc(C(=O)C[C@H](N)Cc2cc(F)ccc2F)n1`, the IC50 in data set [1] is greater than 100 µM.

For `C[C@@H](c1ccc(-c2ccncc2Cl)cc1)[C@H](N)C(=O)N1CC[C@H](F)C1`, the IC50 in data set [1] is greater than 100 µM; in data set [6], 0.071 µM.

For the molecule `C[C@@H](c1nc(-c2ccc(Cl)cc2Cl)no1)[C@H](N)Cc1cc(F)c(F)cc1F`, the values for the IC50 in data set [1] and in data set [6] were greater than 100 µM and 0.6 µM, respectively.

For the molecule `C[C@@H](c1nc(-c2ccc(OC(F)(F)F)cc2)no1)[C@H](N)Cc1cc(F)ccc1F`, the 50% inhibitory concentration (IC50) is greater than 100 µM in data set [1] and 4.4 µM in data set [6].

As for `C[C@@H](c1nc(-c2ccc(S(C)(=O)=O)cc2Cl)no1)[C@H](N)Cc1cc(F)c(F)cc1F`, the IC50 in data set [1] is greater than 100 µM; in data set [6], 0.046 µM.

For `N[C@@H](CC(=O)N1CCC[C@H]1CO)C(=O)N1CC[C@H](F)C1`, the midpoint of inhibition in data set [6], the IC50, lay at 9.2 µM.

As a reminder, the IC50 is the point on the concentration scale where inhibition reaches its midpoint. A higher IC50 goes with lower potency. Usually Cmax stands for the highest concentration seen after dosing. A word on the half-life: it is the time needed for the level to fall by half in the phase considered. Read a low half-life as rapid decline.
